The source made the active and inactive calls. The rule behind the calls is not given here.
Columns and labels:
[1] = test system: 3T3-L1; experiment: Lipid lowering activity in mouse 3T3-L1 cells assessed as reduction in adipogenic cocktail-induced triglyceride levels at 1 uM incubated for 6 days by GPO-POD assay; assay type: functional, cell-based; settings: time 6.0 day
[2] = test system: 3T3-L1; experiment: Lipid lowering activity in mouse 3T3-L1 cells assessed as reduction in adipogenic cocktail-induced triglyceride levels at 1 to 10 uM by Oil-Red O staining; assay type: functional, cell-based; settings: dose 1-10 µM
[3] = test system: 3T3-L1; experiment: Toxicity in mouse 3T3-L1 cells assessed as reduction in cell viability at 10 uM incubated for 6 days by LDH release assay; assay type: cell-based; settings: 3t3-l1, 144 h, time 6 day
[4] = test system: 3T3-L1; experiment: Lipid lowering activity in mouse 3T3-L1 cells assessed as reduction in adipogenic cocktail-induced triglyceride levels incubated for 6 days by GPO-POD assay; assay type: functional, cell-based; settings: for EC50: 3T3-L1, 144 h; for inhibition: time 6.0 day
[5] = Toxicity in mouse 3T3-L1 cells assessed as reduction in cell viability incubated for 6 days by MTT assay; assay type: cell-based
[6] = Selectivity index, ratio of IC50 for cytotoxicity against mouse 3T3-L1 cells to EC50 for lipid lowering activity in mouse 3T3-L1 cells
[7] = test system: HEK293; experiment: Toxicity in HEK293 cells assessed as reduction in cell viability at 10 uM incubated for 6 days by MTT assay; assay type: cell-based; settings: human, hek293, 144 h, time 6 day
[8] = test system: HepG2; experiment: Lipid lowering activity in human HepG2 cells assessed as reduction in high-glucose induced triglyceride levels at 10 uM incubated for 24 hrs by GPO-POD assay; assay type: functional, cell-based
[9] = test system: HepG2; experiment: Lipid lowering activity in human HepG2 cells assessed as reduction in high-glucose induced triglyceride levels at 1 uM incubated for 24 hrs by GPO-POD assay; assay type: functional, cell-based
[10] = test system: 3T3-L1; experiment: Inhibition of cell differentiation in mouse 3T3-L1 cells assessed as reduction in adipogenic cocktail-induced triglyceride levels at 1 uM incubated for 0 to 3 days by GPO-POD assay; assay type: functional, cell-based; settings: time 0-3 day
[11] = test system: 3T3-L1; experiment: Inhibition of cell differentiation in mouse 3T3-L1 cells assessed as reduction in adipogenic cocktail-induced triglyceride levels at 1 uM incubated for 0 to 6 days by GPO-POD assay; assay type: functional, cell-based; settings: time 0-6 day
[12] = test system: 3T3-L1; experiment: Inhibition of cell differentiation in mouse 3T3-L1 cells assessed as reduction in adipogenic cocktail-induced triglyceride levels at 1 uM incubated for 0 to 9 days by GPO-POD assay; assay type: functional, cell-based; settings: time 0-9 day
[13] = test system: 3T3-L1; experiment: Inhibition of cell differentiation in mouse 3T3-L1 cells assessed as reduction in adipogenic cocktail-induced triglyceride levels at 1 uM incubated for 0 to 6 days by Oil-Red O staining; assay type: functional, cell-based; settings: time 0-6 day
[14] = test system: 3T3-L1; experiment: Inhibition of adipogenic cocktail-induced C/EBPalpha mRNA expression in mouse 3T3-L1 cells incubated for 24 hrs by RT-qPCR analysis; assay type: functional, cell-based
[15] = test system: 3T3-L1; experiment: Inhibition of cell differentiation in mouse 3T3-L1 cells assessed as reduction in adipogenic cocktail-induced triglyceride levels at 1 uM incubated for 0 to 9 days by Oil-Red O staining; assay type: functional, cell-based; settings: time 0-9 day
[16] = test system: 3T3-L1; experiment: Inhibition of adipogenic cocktail-induced C/EBPbeta mRNA expression in mouse 3T3-L1 cells incubated for 24 hrs by RT-qPCR analysis; assay type: functional, cell-based
[17] = test system: 3T3-L1; experiment: Inhibition of adipogenic cocktail-induced PPARgamma mRNA expression in mouse 3T3-L1 cells incubated for 24 hrs by RT-qPCR analysis; assay type: functional, cell-based
[18] = test system: 3T3-L1; experiment: Inhibition of adipogenic cocktail-induced C/EBPalpha protein expression in mouse 3T3-L1 cells incubated for 24 hrs by Western blot analysis; assay type: functional, cell-based
[19] = test system: 3T3-L1; experiment: Inhibition of adipogenic cocktail-induced PPARgamma protein expression in mouse 3T3-L1 cells incubated for 24 hrs by Western blot analysis; assay type: functional, cell-based
[20] = test system: 3T3-L1; experiment: Inhibition of adipogenic cocktail-induced SCD1 mRNA expression in mouse 3T3-L1 cells incubated for 6 days by RT-qPCR analysis; assay type: functional, cell-based; settings: time 6.0 day
[21] = test system: 3T3-L1; experiment: Inhibition of adipogenic cocktail-induced ACC mRNA expression in mouse 3T3-L1 cells incubated for 6 days by RT-qPCR analysis; assay type: functional, cell-based; settings: time 6.0 day
[22] = test system: 3T3-L1; experiment: Inhibition of adipogenic cocktail-induced FAS mRNA expression in mouse 3T3-L1 cells incubated for 6 days by RT-qPCR analysis; assay type: functional, cell-based; settings: time 6.0 day
[23] = test system: 3T3-L1; experiment: Inhibition of adipogenic cocktail-induced SCD1 protein expression in mouse 3T3-L1 cells incubated for 6 days by Western blot analysis; assay type: functional, cell-based; settings: time 6.0 day
[24] = test system: 3T3-L1; experiment: Inhibition of adipogenic cocktail-induced ACC protein expression in mouse 3T3-L1 cells incubated for 6 days by Western blot analysis; assay type: functional, cell-based; settings: time 6.0 day
[25] = test system: 3T3-L1; experiment: Inhibition of adipogenic cocktail-induced FAS protein expression in mouse 3T3-L1 cells incubated for 6 days by Western blot analysis; assay type: functional, cell-based; settings: time 6.0 day
[26] = test system: 3T3-L1; experiment: Inhibition of GR-alpha in mouse 3T3-L1 cells assessed as reduction in adipogenic cocktail-induced Dexras1 mRNA expression incubated for 0.5 to 24 hrs by RT-qPCR analysis; assay type: cell-based; settings: time 0.5-24 hrs
[27] = test system: 3T3-L1; experiment: Inhibition of GR-alpha in mouse 3T3-L1 cells assessed as reduction in adipogenic cocktail-induced Dexras1 protein expression incubated for 0.5 to 24 hrs by Western blot analysis; assay type: cell-based; settings: time 0.5-24 hrs
[28] = test system: 3T3-L1; experiment: Inhibition of adipogenic cocktail-induced C/EBP-beta mRNA expression in mouse 3T3-L1 cells at 1 to 10 uM incubated for 0.5 hrs by RT-qPCR analysis; assay type: functional, cell-based; settings: dose 1-10 µM
[29] = test system: 3T3-L1; experiment: Inhibition of adipogenic cocktail-induced C/EBP-delta protein expression in mouse 3T3-L1 cells at 1 to 10 uM incubated for 0.5 hrs by Western blot analysis; assay type: functional, cell-based; settings: dose 1-10 µM
[30] = test system: 3T3-L1; experiment: Inhibition of adipogenic cocktail-induced GR-alpha protein expression in mouse 3T3-L1 cells at 1 to 10 uM incubated for 4 to 24 hrs by Western blot analysis; assay type: functional, cell-based; settings: dose 1-10 µM, time 4-24 hrs
[31] = test system: 3T3-L1; experiment: Inhibition of adipogenic cocktail-induced GR-alpha nuclear translocation in mouse 3T3-L1 cells at 1 uM after 8 hrs by Western blot analysis; assay type: cell-based
[32] = test system: 3T3-L1; experiment: Inhibition of adipogenic cocktail-induced GR-beta nuclear translocation in mouse 3T3-L1 cells at 1 uM after 8 hrs by immunofluorescence assay; assay type: cell-based
[33] = test system: 3T3-L1; experiment: Lipid lowering activity in mouse 3T3-L1 cells assessed as reduction in adipogenic cocktail induced triglyceride levels at 1 uM incubated for 6 days in presence of GR-alpha siRNA by GPO-POD assay; assay type: functional, cell-based; settings: time 6.0 day
[34] = test system: 3T3-L1; experiment: Inhibition of adipogenic cocktail-induced PPARgamma mRNA expression in mouse 3T3-L1 cells at 1 uM after 1 day in presence of GR-alpha siRNA by RT-qPCR analysis; assay type: functional, cell-based
[35] = test system: 3T3-L1; experiment: Inhibition of adipogenic cocktail-induced ACC mRNA expression in mouse 3T3-L1 cells at 1 uM after 6 days in presence of GR-alpha siRNA by RT-qPCR analysis; assay type: functional, cell-based; settings: time 6.0 day
[36] = test system: 3T3-L1; experiment: Inhibition of GR-alpha in mouse 3T3-L1 cells assessed as reduction in GR-alpha interaction with Dexras1 at 1 uM incubated for 8 hrs by ChIP assay; assay type: cell-based
[37] = test system: 3T3-L1; experiment: Inhibition of GR-alpha in mouse 3T3-L1 cells assessed as reduction in GR-alpha interaction with C/EBP-beta at 1 uM incubated for 8 hrs by ChIP assay; assay type: cell-based
[38] = test system: 3T3-L1; experiment: Inhibition of GR-alpha in mouse 3T3-L1 cells assessed as reduction in GR-alpha interaction with PPAR-gamma at 1 uM incubated for 8 hrs by ChIP assay; assay type: cell-based

| SMILES | inhibition [1] | inhibition [2] | Activity [3] | EC50 [4] [µM] | inhibition [4] | IC50 at 6 days [5] [µM] | Selectivity Index [6] | Activity [7] | inhibition [8] | inhibition [9] | inhibition [10] | inhibition [11] | inhibition [12] | inhibition [13] | inhibition [14] | inhibition [15] | inhibition [16] | inhibition [17] | inhibition [18] | inhibition [19] | also measured |
| --- | --- | --- | --- | --- | --- | --- | --- | --- | --- | --- | --- | --- | --- | --- | --- | --- | --- | --- | --- | --- | --- |
| CC1=C[C@@H]2[C@@H](C1=O)[C@H](O)C(C)=C[C@H]1[C@@H]3C(C)(C)[C@]3(OC(=O)C(C)C)[C@H](OC(=O)c3ccccc3)[C@@H](C)[C@]21O | Active | Active | Non-Toxic | 0.61 | Dose-dependent effect | 17.2 | 28 | Non-Toxic | Active | Active | Active | inactive | inactive | inactive | Dose-dependent effect | inactive | Dose-dependent effect | Dose-dependent effect | Dose-dependent effect | Dose-dependent effect | inhibition [20]: Dose-dependent effect; inhibition [21]: Dose-dependent effect; inhibition [22]: Dose-dependent effect; inhibition [23]: Dose-dependent effect; inhibition [24]: Dose-dependent effect; inhibition [25]: Dose-dependent effect; inhibition [26]: Dose-dependent effect; inhibition [27]: Dose-dependent effect; inhibition [28]: inactive; inhibition [29]: inactive; inhibition [30]: inactive; inhibition [31]: Active; inhibition [32]: inactive; inhibition [33]: Active; inhibition [34]: Active; inhibition [35]: Active; inhibition [36]: Active; inhibition [37]: Active; inhibition [38]: Active |
| CC(=O)O[C@@H]1C(C)=C[C@H]2[C@@H]3C(C)(C)[C@]3(OC(=O)C(C)C)[C@H](OC(=O)c3ccccc3)[C@@H](C)[C@]2(O)[C@@H]2C=C(C)C(=O)[C@@H]12 | Active | Active | Non-Toxic | 0.32 | Dose-dependent effect | > 100 | >312 | Non-Toxic | Active | Active | Active | inactive | inactive | inactive | Dose-dependent effect | inactive | Dose-dependent effect | Dose-dependent effect | Dose-dependent effect | Dose-dependent effect | inhibition [20]: Dose-dependent effect; inhibition [21]: Dose-dependent effect; inhibition [22]: Dose-dependent effect; inhibition [23]: Dose-dependent effect; inhibition [24]: Dose-dependent effect; inhibition [25]: Dose-dependent effect; inhibition [26]: Dose-dependent effect; inhibition [27]: Dose-dependent effect; inhibition [28]: inactive; inhibition [29]: inactive; inhibition [30]: inactive; inhibition [31]: Active; inhibition [32]: inactive; inhibition [33]: Active; inhibition [34]: Active; inhibition [35]: Active; inhibition [36]: Active; inhibition [37]: Active; inhibition [38]: Active |

Reference: ChEMBL document CHEMBL4680113, “Tigliane Diterpenoids as a New Type of Antiadipogenic Agents Inhibit GRα-Dexras1 Axis in Adipocytes” (J Med Chem, 2019)
